# Tests used:
# S. aureus ATCC 29213 = test: MIC by broth microdilution (CLSI); format: cell-based, Staphylococcus aureus; conditions: Gram-positive, 37 °C, 24 h, Mueller Hinton Broth; for MIC: Staphylococcus aureus, ATCC29213
# Procedure: (§1) The in vitro Minimum Inhibitory Concentrations (MICs, μg/mL) were determined by the broth microdilution method according to the Clinical Laboratory Standards Institute (CLSI) guidelines. MIC values were recorded as the lowest concentration of compounds at which there was no optically detectable microorganism growth and evaluated by comparing the growth in each well visually with that of the growth in the control well for bacteria. All compounds were dissolved in dimethyl sulfoxide (DMSO) and were tested in a final concentration range of from 512 to 2 µg/mL. MICs for the reference antibiotic norfloxacin against quality control strains were used to confirm the validity of the screen. According to the CLSI guidelines, diphenylureas were tested in vitro against a panel of Gram-positive and Gram-negative bacteria belonging to the ATCC collection using the standard microdilution test for the determination of MICs. MICs of the synthesised compounds along with the parent compound TCC and with the standard antibiotic norfloxacin are listed in Table 1. The compounds were also analyzed in terms of molecular mass, logP (Table 1), number of hydrogen-bond donors and number of hydrogen-bond acceptors, and most of them obeyed Lipinski’s rule. […] Based on our results, it seems that the 3,4-dichloro-disubstitution pattern, which is present in TCC, is not crucial for activity. […] Moreover, the activity against Enterococcus faecalis was interesting. E. faecalis is a ubiquitous member of the healthy human gut microbiota and also a common opportunistic pathogen and leading cause of nosocomial infections. It has a high incidence for most infections, and the case numbers have been increasing in recent decades, likely due to its greater ability to persist in healthcare facilities and its higher abundance in the human gut microbiome. Kim et al. (2016) compared the bactericidal effects of plain and antibacterial soap containing 0.3% TCC. The authors found no significative difference between the effects of plain and medicated soap at either temperature, with the only exception of E. faecalis ATCC 19433 at 40 °C.
# (§2) MICs (μg/mL) were determined by the broth microdilution method, using 96-well plates, according to CLSI [26]. Stock solutions of the investigated compounds were obtained by setting the concentration at the maximum possible value. Then, the stock solutions were diluted 1:10 with Mueller Hinton Broth (Oxoid, Italy). Afterwards, twofold serial dilutions in the suitable test medium were carried out to obtain a set of concentrations from 512 to 2 µg/mL in the wells. To obtain the stock solution, DMSO (100%) was employed as diluent. The following bacteria strains, available as freeze-dried discs, belonging to the ATCC collection, were used: Gram-positive: S. aureus ATCC 29213, 6538, and 6538P, E. faecalis ATCC 29212; Gram-negative: K. pneuomoniae ATCC 13883, P. aeruginosa ATCC 27853. To conserve the purity of cultures and to enable their reproducibility, cryovials of all microbial strains in the medium were set up and stored at −80 °C. Pre-cultures of each bacterial strain were prepared in Mueller Hinton Broth (MHB) and incubated at 37 °C for 3–5 h. The turbidity of bacterial cell suspension was calibrated to 0.5 McFarland Standard by the spectrophotometric method (OD 625 nm 0.08–0.10), as indicated in the CLSI protocol M7-A9 and, further, the standardized suspension was diluted (1:100) with MHB to reach 1–2 × 10^6 CFU/mL. All wells were seeded with 100 µl of the mentioned final inoculum, and some wells contained only inoculated broth as control growth. […] The MICs were determined by using the assay repeated twice in triplicate. Throughout the study, norfloxacin was used as reference antibiotic. Appropriate controls involved norfloxacin for bacteria as international reference standard. […]
# S. aureus ATCC 6538P = test: MIC by broth microdilution (CLSI); format: cell-based, Staphylococcus aureus; conditions: Gram-positive, 37 °C, 24 h, Mueller Hinton Broth; for MIC: Staphylococcus aureus, ATCC6538P
# Procedure: as §1, §2
# S. aureus ATCC 6538 = test: MIC by broth microdilution (CLSI); format: cell-based, Staphylococcus aureus; conditions: Gram-positive, 37 °C, 24 h, Mueller Hinton Broth; for MIC: Staphylococcus aureus, ATCC6538
# Procedure: as §1, §2
# E. faecalis ATCC 29212 = test: MIC by broth microdilution (CLSI); format: cell-based, Enterococcus faecalis; conditions: Gram-positive, 37 °C, 24 h, Mueller Hinton Broth; for MIC: Enterococcus faecalis, ATCC29212, read-out: MIC E.f. 29212
# Procedure: as §1, §2
# K. pneumoniae ATCC 13883 = test: MIC by broth microdilution (CLSI); format: cell-based; conditions: Gram-negative, 37 °C, 24 h, Mueller Hinton Broth; for MIC: Klebsiella pneumoniae, ATCC13883, read-out: MIC K.p. 13883
# Procedure: as §1, §2
# P. aeruginosa ATCC 27853 = test: MIC by broth microdilution (CLSI); format: cell-based; conditions: Gram-negative, 37 °C, 24 h, Mueller Hinton Broth; for MIC: Pseudomonas aeruginosa, ATCC27853
# Procedure: as §1, §2
# E. coli 25922 = test: MIC by broth microdilution (CLSI); format: cell-based; conditions: Escherichia coli, Gram-negative, 37 °C, 24 h, Mueller Hinton Broth
# Staphylococcus aureus = test: MIC by broth microdilution, S. aureus (strain not given); format: cell-based; conditions: strain not specified (best value among the ATCC strains), read-out: MIC against S. aureus
# Procedure: as §1, §2
Molecule,MIC S.a. 29213 (S. aureus ATCC 29213) [µg/mL],MIC S.a. 6538P (S. aureus ATCC 6538P) [µg/mL],MIC S.a. 6538 (S. aureus ATCC 6538) [µg/mL],MIC E.f. 29212 (E. faecalis ATCC 29212) [µg/mL],MIC K.p. 13883 (K. pneumoniae ATCC 13883) [µg/mL],MIC P. a. 27853 (P. aeruginosa ATCC 27853) [µg/mL],MIC (S. aureus ATCC 29213) [µg/mL],MIC (S. aureus ATCC 6538P) [µg/mL],MIC (S. aureus ATCC 6538) [µg/mL],MIC (E. faecalis ATCC 29212) [µg/mL],MIC (E. coli 25922) [µg/mL],MIC (K. pneumoniae ATCC 13883) [µg/mL],MIC (P. aeruginosa ATCC 27853) [µg/mL],MIC (Staphylococcus aureus) [µg/mL],melting point [°C]
1-(3-Chloro-4-fluorophenyl)-3-(2-methylphenyl)urea [1gk],256,64,128,64,256,256,,,,,,,,,
"COc1ccc(NC(=O)Nc2ccc(C)cc2)cc1 [1ad, 1-(4-Methoxyphenyl)-3-(p-tolyl)urea]",,,,,,,128,32,32,128,> 256,> 256,> 256,32,
"Cc1ccc(NC(=O)Nc2ccc(Cl)c(Cl)c2)cc1 [1ae, 1-(3,4-Dichlorophenyl)-3-p-tolylurea]",,,,,,,128,64,64,128,> 256,> 256,> 256,,225 to 226
"Cc1ccc(NC(=O)Nc2ccccc2)cc1 [1af, 1-(4-Methylphenyl)-3-phenylurea]",,,,,,,128,128,64,64,> 256,> 256,> 256,,
"Cc1ccc(NC(=O)Nc2ccccc2C)cc1 [1ag, 1-(2-Methylphenyl)-3-(4-methylphenyl)urea]",,,,,,,256,256,128,128,> 256,> 256,> 256,,
"COc1ccc(NC(=O)Nc2c(C)cccc2C)cc1 [1bd, 1-(4-Methoxyphenyl)-3-(2,6-dimethylphenyl)urea]",,,,,,,> 256,16,32,128,> 256,> 256,> 256,16,
"Cc1cccc(C)c1NC(=O)Nc1ccc(Cl)c(Cl)c1 [1be, 1-(2,6-Dimethylphenyl)-3-(3,4-dichlorophenyl)urea]",,,,,,,128,128,32,64,> 256,> 256,> 256,32,249 to 250
"Cc1cccc(C)c1NC(=O)Nc1ccccc1 [1bf, 1-(2,6-Dimethylphenyl)-3-phenylurea]",,,,,,,> 256,16,16,64,> 256,> 256,> 256,16,240 to 241
"O=C(Nc1ccc(Cl)cc1)Nc1ccc(Cl)cc1 [1cc (DCC), 1-(4-Chlorophenyl)-3-(4-chlorophenyl)urea]",,,,,,,256,256,128,128,> 256,> 256,> 256,,
"O=C(Nc1ccccc1)Nc1ccc(Cl)cc1 [1cf (MCC), 1-(4-Chlorophenyl)-3-phenylurea]",,,,,,,128,128,64,64,> 256,> 256,> 256,,

# Reference: paper PMC7922224, “Searching for Small Molecules as Antibacterials: Non-Cytotoxic Diarylureas Analogues of Triclocarban” (Antibiotics, 2021)
